For assay [1], the system named is Candida parapsilosis. Put plainly: Antifungal activity against Candida parapsilosis clinical isolate bloodstream form assessed as induction of miniparadoxical effect at 32 mg/L after 48 hrs by time-kill assay. The format is functional, organism-based.
Assay [2] deals with Candida metapsilosis. Put plainly: Antifungal activity against Candida metapsilosis clinical isolate bloodstream form assessed as induction of miniparadoxical effect at 32 mg/L after 48 hrs by time-kill assay. It counts as functional, organism-based.
Assay [3] concerns Candida metapsilosis. Put plainly: Antifungal activity against Candida metapsilosis clinical isolate bloodstream form assessed as induction of miniparadoxical effect at 16 mg/L after 48 hrs by time-kill assay. The format is functional, organism-based.
In assay [4] the test system is Candida metapsilosis. The assay is described as follows: Antifungal activity against Candida metapsilosis clinical isolate bloodstream form assessed as minimum concentration required for => 3-log decrease in fungal growth after 12 to 48 hrs by time-kill assay. The format is functional.
Another assay has as its system Candida orthopsilosis. The assay is described as follows: Antifungal activity against Candida orthopsilosis clinical isolate bloodstream form assessed as induction of miniparadoxical effect at 16 mg/L after 48 hrs by time-kill assay. The format is functional, organism-based.
The subject of assay [5] is Candida parapsilosis. The assay is described as follows: Antifungal activity against Candida parapsilosis clinical isolate bloodstream form assessed as minimum concentration required for => 3-log decrease in fungal growth after 12 to 48 hrs by time-kill assay. It counts as functional.
Assay [6] concerns Candida parapsilosis. The assay is described as follows: Antifungal activity against Candida parapsilosis clinical isolate bloodstream form assessed as fungal count at 1 mg/L measured at 6 hrs by time-kill assay. The format is functional.
The test system of assay [7] is Candida metapsilosis. Put plainly: Antifungal activity against Candida metapsilosis clinical isolate bloodstream form assessed as induction of maximal fungal death at 32 mg/L after 48 hrs by time-kill assay. The format is functional, organism-based.

The source made the active and inactive calls. The calls are words filed in the database; no cut-off is given here. Numbered stars: 1 amine (or outer) side, 2 acyl side, 3 side chain; on linkers, the order of the positions; unused ones are H or OH. Bridge positions count the residues as written; N and C are the ends. Square brackets hold non-standard residues; d marks the D form. Peptide text beside a SMILES is read from it. * marks the point of attachment. hTyr(3S-OH,4S-OH,3'-OSO3H) = N[C@H](C(=O)O)[C@H](O)[C@@H](O)c1ccc(O)c(OS(=O)(=O)O)c1; pTerphenylCO(4''-OnC5H11) = CCCCCOc1ccc(-c2ccc(-c3ccc(C(=O)*)cc3)cc2)cc1; Orn(4R-OH,5R-OH) = O=C([C@H](C[C@@H](O)[C@@H](O)N[*:3])N[*:1])[*:2]; hTyr(3S-OH,4S-OH) = N[C@H](C(=O)O)[C@H](O)[C@@H](O)c1ccc(O)cc1; Pro(3S-OH,4S-Me) = C[C@H]1CN[C@H](C(=O)O)[C@H]1O; X1 = CCCCCOc1ccc(-c2cc(-c3ccc(C(=O)*)cc3)no2)cc1; Gln(3R-OH) = NC(=O)C[C@@H](O)[C@H](N)C(=O)O; Hyp = O=C(O)[C@@H]1C[C@@H](O)CN1

Turning to `CCCCCOc1ccc(-c2ccc(-c3ccc(C(=O)N[C@H]4C[C@@H](O)[C@@H](O)NC(=O)[C@@H]5[C@@H](O)[C@@H](C)CN5C(=O)[C@H]([C@@H](C)O)NC(=O)[C@H]([C@H](O)[C@@H](O)c5ccc(O)cc5)NC(=O)[C@@H]5C[C@@H](O)CN5C(=O)[C@H]([C@@H](C)O)NC4=O)cc3)cc2)cc1` [ANIDULAFUNGIN] ({pTerphenylCO(4''-OnC5H11)}-[Orn(4R-OH,5R-OH)]T[Hyp][hTyr(3S-OH,4S-OH)]T[Pro(3S-OH,4S-Me)]; lactam 1-C), the outcome in the assay with Candida parapsilosis [1] was Active. The outcome in the assay on Candida metapsilosis [2] was inactive.
Regarding `CC[C@H](C)C[C@H](C)CCCCCCCCC(=O)N[C@H]1C[C@@H](O)[C@@H](NCCN)NC(=O)[C@@H]2[C@@H](O)CCN2C(=O)[C@H]([C@H](O)CCN)NC(=O)[C@H]([C@H](O)[C@@H](O)c2ccc(O)cc2)NC(=O)[C@@H]2C[C@@H](O)CN2C(=O)[C@H]([C@@H](C)O)NC1=O` [CASPOFUNGIN], the result in the assay on Candida metapsilosis [3] and in the assay with Candida orthopsilosis was Active. Besides, the MED with Candida metapsilosis [4] and with Candida parapsilosis [5] was 14 mg/L each time.
In the case of `CCCCCOc1ccc(-c2cc(-c3ccc(C(=O)N[C@H]4C[C@@H](O)[C@@H](O)NC(=O)[C@@H]5[C@@H](O)[C@@H](C)CN5C(=O)[C@H]([C@H](O)CC(N)=O)NC(=O)[C@H]([C@H](O)[C@@H](O)c5ccc(O)c(OS(=O)(=O)O)c5)NC(=O)[C@@H]5C[C@@H](O)CN5C(=O)[C@H]([C@@H](C)O)NC4=O)cc3)no2)cc1` [MICAFUNGIN] (X1-[Orn(4R-OH,5R-OH)]T[Hyp][hTyr(3S-OH,4S-OH,3'-OSO3H)][Gln(3R-OH)][Pro(3S-OH,4S-Me)]; lactam 1-C), the log10cfu with Candida parapsilosis [6] is on record as 1.22 /ml. Besides, in the assay on Candida metapsilosis [7], the result was Active.

For the origin of these results see ChEMBL document CHEMBL1255421, “In vitro fungicidal activities of echinocandins against Candida metapsilosis, C. orthopsilosis, and C. parapsilosis evaluated by time-kill studies” (2010).
